As a reminder, the EC50 is the midpoint of the concentration-response curve.

SMILES strings stand for the structures.

hTREM2, sequence (Q9NZC2 19-230): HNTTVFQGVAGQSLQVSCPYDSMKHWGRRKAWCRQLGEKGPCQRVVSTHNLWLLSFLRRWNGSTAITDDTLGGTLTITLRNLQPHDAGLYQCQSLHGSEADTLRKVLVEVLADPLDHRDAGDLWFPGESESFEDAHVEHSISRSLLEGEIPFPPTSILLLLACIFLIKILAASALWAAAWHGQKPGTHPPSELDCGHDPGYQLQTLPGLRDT
hTREM2, sequence (O43914 22-113 partner): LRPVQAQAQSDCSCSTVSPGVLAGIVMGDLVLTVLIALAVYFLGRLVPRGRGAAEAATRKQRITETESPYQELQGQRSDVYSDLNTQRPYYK

This test addresses hTREM2 (Homo sapiens, UniProt Q9NZC2). Description: TREM2 activity by cellular Syk phosphorylation (AlphaScreen/AlphaLISA) in TREM2/DAP12-HEK cells, used for Examples 1-305. The test is classed as cell-based. Also noted: expressed in transfected cells. Particulars: HEK293 Cells. An excerpt:
In vitro Measurement of Triggering Receptor Expressed on Myeloid Cells 2 activity using cellular phosphorylation of Spleen Tyrosine Kinase (“Syk”) Assays used for Examples 1-305
Pharmacological measurements of TREM2 signaling through DAP12 were made with TREM2 and DAP12 overexpressing HEK293 cells stable cell lines that had been single-cell cloned (“TREM2/DAP12-HEK”). The readout of the TREM2 signaling utilized Perkin Elmer AlphaScreen/AlphaLISA technology monitoring the phosphorylation levels of the Syk kinase. TREM2/DAP12-HEK cell lines were cultured in DMEM-F12 (Corning 10-092-CM) supplemented with 1X Penicillin/Streptomycin (Corning 30-002-CI), 1X GlutaMAX (Gibco 35050-061), and 10% Fetal Bovine Serum (Life Technologies 10099) referred to as “HEK Culture Medium”. Suspensions of TREM2/DAP12-HEK cells were prepared in HEK Culture Medium and dispensed into 384-well poly-D-lysine coated microplates (Corning 354661) at a density of 20,000 cells/well using a Multidrop Combi peristaltic microplate dispenser (Thermo), 25 μL volume of cell suspension/well. Plates containing cells were then incubated for 20 hours in a humidified cell culture incubator at 37° C. with 5% CO2 (Thermo). After incubation, culture medium was removed from all wells of each microplate and replaced with 20 μL of “Assay Buffer” comprised of DMEM-F12 (Corning 10-092-CM) supplemented with 1X Penicillin/Streptomycin (Corning 30-002-CI) and 0.1% Pluronic F-68 Polyol (MP Biomedical 092750049) using a Bravo 384-well pipette-based liquid handling system (Agilent). Assay Buffer contained diluted test articles (in 1% final DMSO concentration for compounds) or 100 nM anti-human/mouse TREM2 antibody (R&D Systems MAB17291) as a positive control, or 100 nM or rat IgG2B isotype Ab as a negative control (R&D Systems MAB0061). The plates were incubated with test articles and controls for 45 minutes at room temperature and then the medium was aspirated/removed from each well of the plates. A Multidrop Combi peristaltic liquid handler (Thermo) was used to dispense 15 μL/well of “Cell Lysis Immunoassay Buffer”. The Cell Lysis Immunoassay Buffer contained M-PER Mammalian Protein Extraction Reagent (Pierce/ThermoFisher 78505), 1X Halt Phosphatase Inhibitor Cocktail (ThermoFisher #78427), 0.1875 nM anti-phospho-Syk (Tyr525/526) (C87C1) rabbit mAb (Cell Signaling Technologies catalog #2710), and 1.5 nM biotinylated Mouse anti-human Syk (4D10) antibody (BD Biosciences, catalog #624008). Plates were incubated for 1 hour at room temperature after the addition of the Cell Lysis Immunoassay Buffer. The Multidrop Combi liquid handler was used to dispense 15 μL of AlphaScreen Acceptor Bead Solution containing 7.5 μg/mL anti-rabbit IgG (Fc specific) AlphaLISA Acceptor Beads (Perkin Elmer AL104R) in 1X Immunoassay buffer (Perkin Elmer AL000F) to each well of the microplates. The plates were incubated for 2 hours at room temperature. Following the incubation with the AlphaLISA Acceptor Bead Solution, a Multidrop Combi liquid handler (Thermo) was used to dispense 15 μL of AlphaScreen Donor Bead Solution containing 30 μg/mL of AlphaScreen Streptavidin Donor beads (Perkin Elmer 6760002B) in 1X Immunoassay buffer (Perkin Elmer AL000F) to each well of the microplates. Microplates were incubated for 2 hours protected from light sources as the AlphaScreen reagents are light sensitive. Once the final incubation was completed, an AlphaScreen signal was acquired from the donor and acceptor beads using an Envision high throughput multi-modal microplate reader (Perkin Elmer) calibrated to the plate type with the AlphaScreen mirror and filter-set in 384-well mode, 680 nanometer excitation wavelength. The total measurement time per well was 550 milliseconds with a 180 millisecond excitation time. […]
As for `Cc1cc([C@H]2C[C@@H](c3nc(-c4ccc(Cl)cc4F)c4nc(C)c(C)nc4n3)CCO2)ccn1` (single isomer, unassigned) [Example 207], the EC50 was not above 0.05 µM; the “hTREM2 Emax” value is “+++ (Emax>150 and ≤250)”.

Regarding `COc1cc([C@H]2C[C@@H](c3nc(-c4ccc(Cl)cc4F)c4nc(C)c(C)nc4n3)CCO2)ccn1` (single isomer, unassigned) [Example 208], the EC50 was not above 0.05 µM; the “hTREM2 Emax” value is “+++ (Emax>150 and ≤250)”.

Consider `Cc1ncc([C@H]2C[C@@H](c3nc(-c4ccc(Cl)cc4F)c4nc(C)c(C)nc4n3)CCO2)cn1` (single isomer, unassigned) [Example 209], for which the EC50 lay in the range of 0.05 to 0.5 µM; the “hTREM2 Emax” value was “+++ (Emax>150 and ≤250)”.

As to `Cc1cc([C@@H]2C[C@H](c3nc(-c4ccc(F)cc4F)c4nc(C)c(C)nc4n3)CCO2)ccn1` (single isomer, unassigned) [Example 210], the EC50 lay within 0.05 to 0.5 µM and the “hTREM2 Emax” value is “++++ (Emax>250)”.

In the case of `Cc1cc([C@H]2C[C@@H](c3nc(-c4ccc(F)cc4F)c4nc(C)c(C)nc4n3)CCO2)ccn1` (single isomer, unassigned) [Example 211], the EC50 is not above 0.05 µM and the “hTREM2 Emax” value is “++++ (Emax>250)”.

Regarding `Cc1cc([C@@H]2C[C@@H](c3nc(-c4ccc(F)cc4F)c4nc(C)c(C)nc4n3)CCO2)ccn1` (single isomer, unassigned) [Example 212], the EC50 is 0.5 to 3 µM and the “hTREM2 Emax” value is recorded as “++++ (Emax>250)”.

For `Cc1cc([C@H]2C[C@H](c3nc(-c4ccc(F)cc4F)c4nc(C)c(C)nc4n3)CCO2)ccn1` (single isomer, unassigned) [Example 213], the EC50 was in the range of 0.05 to 0.5 µM; the “hTREM2 Emax” value was “+++ (Emax>150 and ≤250)”.

Consider `Cc1cc([C@@H]2C[C@H](c3nc4nc(C)c(C)nc4c([C@H]4C[C@H](C(F)(F)F)C4)n3)CCO2)ccn1` (single isomer, unassigned) [Example 214], for which the EC50 was in the range of 0.05 to 0.5 µM and the “hTREM2 Emax” value is recorded as “++++ (Emax>250)”.

Consider `Cc1cc([C@H]2C[C@@H](c3nc4nc(C)c(C)nc4c([C@H]4C[C@H](C(F)(F)F)C4)n3)CCO2)ccn1` (single isomer, unassigned) [Example 215], for which the EC50 is not above 0.05 µM; the “hTREM2 Emax” value is “+++ (Emax>150 and ≤250)”.

Consider `Cc1nc2nc([C@H]3C[C@@H](C)O[C@@H](c4cnn(C)c4)C3)nc(-c3ccc(Cl)cc3F)c2nc1C` (single isomer, unassigned) [Example 216], for which the EC50 was not above 0.05 µM; the “hTREM2 Emax” value is “+++ (Emax>150 and ≤250)”.

Take `Cc1cc([C@H]2C[C@@H](c3cc4nc(C)c(C)nc4c(-c4ccc(Cl)cc4F)n3)CCO2)ccn1` (single isomer, unassigned) [Example 218]: the EC50 is not above 0.05 µM; the “hTREM2 Emax” value is “+++ (Emax>150 and ≤250)”.

For the compound `Cc1cc([C@H]2C[C@H](c3nc(-c4ccc(Cl)cc4F)c4ccc(C)nc4n3)CCO2)ccn1` (single isomer, unassigned) [Example 219], the EC50 lay within 0.05 to 0.5 µM and the “hTREM2 Emax” value is recorded as “++++ (Emax>250)”.

As for `Cc1cc([C@@H]2C[C@@H](c3nc(-c4ccc(Cl)cc4F)c4ccc(C)nc4n3)CCO2)ccn1` (single isomer, unassigned) [Example 220], the EC50 was 0.05 to 0.5 µM; the “hTREM2 Emax” value was “+++ (Emax>150 and ≤250)”.

In the case of `Cc1cc([C@@H]2C[C@@H](c3nc(-c4ccc(F)cc4F)c4ccc(C)nc4n3)CCO2)ccn1` (single isomer, unassigned) [Example 221], the half-maximal effective concentration (EC50) fell in the range of 0.5 to 3 µM.

With `Cc1ccc(-c2nc([C@H]3CCO[C@@H](c4ccnc(C)c4)C3)nc3nc(C)c(C)cc23)c(F)c1` (single isomer, unassigned) [Example 222], the EC50 is not above 0.05 µM and the “hTREM2 Emax” value was “++++ (Emax>250)”.

Take `Cc1ccc(-c2nc([C@@H]3CCO[C@H](c4ccnc(C)c4)C3)nc3nc(C)c(C)cc23)c(F)c1` (single isomer, unassigned) [Example 223]: the EC50 is 0.05 to 0.5 µM and the “hTREM2 Emax” value is on record as “++++ (Emax>250)”.

Regarding `Cc1cc2c(-c3ccc(Cl)cc3F)nc([C@H]3CCO[C@@H](c4cnn(C)c4)C3)nc2nc1C` (single isomer, unassigned) [Example 224], the EC50 was not above 0.05 µM; the “hTREM2 Emax” value was “+++ (Emax>150 and ≤250)”.

`Cc1cc2c(-c3ccc(Cl)cc3F)nc([C@@H]3CCO[C@@H](c4cnn(C)c4)C3)nc2nc1C` (single isomer, unassigned) [Example 225]: the EC50 lay within 0.05 to 0.5 µM; the “hTREM2 Emax” value is “+++ (Emax>150 and ≤250)”.

For `Cc1cc2c(-c3ccc(Cl)cc3F)nc([C@@H]3CCO[C@H](c4cnn(C)c4)C3)nc2nc1C` (single isomer, unassigned) [Example 226], the EC50 is 0.05 to 0.5 µM; the “hTREM2 Emax” value is “+++ (Emax>150 and ≤250)”.

Consider `Cc1cc([C@@H]2C[C@@H](c3nc(-c4ccc(F)cc4F)c4cc(C)c(C)nc4n3)CCO2)ccn1` (single isomer, unassigned) [Example 227], for which the EC50 was not above 0.05 µM; the “hTREM2 Emax” value is “+++ (Emax>150 and ≤250)”.

Turning to `Cc1cc([C@H]2C[C@H](c3nc(-c4ccc(F)cc4F)c4cc(C)c(C)nc4n3)CCO2)ccn1` (single isomer, unassigned) [Example 228], the EC50 is not above 0.05 µM; the “hTREM2 Emax” value was “+++ (Emax>150 and ≤250)”.

On to `Cc1cc2c(-c3ccc(Cl)cc3F)nc([C@H]3C[C@@H](C)O[C@@H](c4cnn(C)c4)C3)nc2nc1C` (single isomer, unassigned) [Example 229], for which the EC50 is not above 0.05 µM; the “hTREM2 Emax” value is “+++ (Emax>150 and ≤250)”.

Take `Cc1nc2cc([C@H]3C[C@@H](C)O[C@@H](c4cnn(C)c4)C3)nc(-c3ccc(Cl)cc3F)c2nc1C` (single isomer, unassigned) [Example 230]: the EC50 lay in the range of 0.05 to 0.5 µM and the “hTREM2 Emax” value is recorded as “++++ (Emax>250)”.

With `Cc1nc2nc(C3CCO[C@H](c4cnn(C)c4)C3)nc(-c3ccc(Cl)cc3F)c2nc1C` (stereo in doubt) [Example 276, 4-(4-chloro-2-fluorophenyl)-6,7-dimethyl-2-((2S,4R)-2-(1-methyl-1H-pyrazol-4-yl)tetrahydro-2H-pyran-4-yl)pteridine], the EC50 fell in the range of 0.05 to 0.5 µM and the “hTREM2 Emax” value is given as “++++ (Emax>250)”.

For the compound `Cc1cc2c(-c3ccc(Cl)cc3F)nc(C3CCO[C@H](c4cnn(C)c4)C3)nc2nc1C` (stereo in doubt) [Example 277, 4-(4-chloro-2-fluorophenyl)-6,7-dimethyl-2-((2S,4R)-2-(1-methyl-1H-pyrazol-4-yl)tetrahydro-2H-pyran-4-yl)pyrido[2,3-d]pyrimidine], the EC50 lay in the range of 0.05 to 0.5 µM; the “hTREM2 Emax” value is “+++ (Emax>150 and ≤250)”.

Take `Cc1cnc2c(-c3ccc(Cl)cc3F)nc(N3CCO[C@@H](c4cnn(C)c4)C3)nc2n1` [Example 1, 4-(4-chloro-2-fluorophenyl)-7-methyl-2-((2S)-2-(1-methyl-1H-pyrazol-4-yl)-4-morpholinyl) pteridine]: the EC50 was not above 0.05 µM and the “hTREM2 Emax” value is “++++ (Emax>250)”.

Regarding `Cc1cnc2c(-c3ccc(Cl)cc3F)nc(N3CCO[C@@H](c4cnn(C5CC5)c4)C3)nc2n1` [Example 2, 4-(4-chloro-2-fluorophenyl)-2-((2S)-2-(1-cyclopropyl-1H-pyrazol-4-yl)-4-morpholinyl)-7-methylpteridine], the EC50 was not above 0.05 µM; the “hTREM2 Emax” value was “+++ (Emax>150 and ≤250)”.
